Measured values reported in BigSolDB 2.1.

N#Cc1ccc([N+](=O)[O-])cc1
solubility (mole fraction)
Details	278.15 K	283.15 K	288.15 K	293.15 K	298.15 K	303.15 K	308.15 K	313.15 K	318.15 K
in ethanol	0.00255	0.00302	0.00376	0.00454	0.00556	0.00672	0.00821	0.00984	0.0116
in ethyl acetate	0.0404	0.0463	0.0538	0.0619	0.0721	0.0842	0.1	0.119	0.142
in isopropanol	0.00162	0.00196	0.00246	0.00304	0.00374	0.0046	0.00572	0.00708	0.00877
in methanol	0.0032	0.0037	0.00448	0.00541	0.00652	0.00788	0.00955	0.0115	0.0135
in n-propanol	0.00227	0.00271	0.0033	0.00407	0.00505	0.00619	0.00758	0.00908	0.0108
